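Results reflect a 48-hour exposure of cells in 96-well plates to compound at five concentrations. GI50 is the concentration that inhibits growth by half.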 Active and inactive are the calls of the source. Cut-off read from the data, not from the text of the source: active = GI50 up to about 1.1 µM and inactive = higher.

Test systems include SF-268; NCI/ADR-RES; HCC 2998; A549; TK-10; Malme-3M; OVCAR-5; COLO 205; OVCAR-4; PC-3; CCRF-CEM; SR; A498; IGROV-1; HCT-15; RXF 393; OVCAR-8; ACHN; UACC-257; CAKI-1.
What all share (assay): growth of human tumour cells (NCI), 48 h

As to `COc1ccc(C(=O)NCCN(C)C)c2nc3ccccc3cc12`, the GI50 was 1.58 µM (inactive) in the assay with SF-268; 1.67 µM (inactive) with NCI/ADR-RES; 2.04 µM (inactive) in the assay with HCC 2998; 0.0962 µM (active) with A549; 1.72 µM (inactive) with TK-10; 0.841 µM (active) in the assay with Malme-3M. Moreover, the GI50 is 0.163 µM (active) in the assay on OVCAR-5; 1.2 µM (inactive) with COLO 205; 1.54 µM (inactive) in the assay on OVCAR-4; 1.38 µM (inactive) with PC-3; 0.208 µM (active) in the assay on CCRF-CEM; 0.0551 µM (active) in the assay on SR. Further, the GI50 with A498 was 0.114 µM (active); in the assay on IGROV-1, 1.32 µM (inactive); in the assay on HCT-15, 1.35 µM; in the assay with RXF 393, 2.15 µM (inactive); in the assay on OVCAR-8, 0.655 µM (active); with ACHN, 0.21 µM (active). Also, the GI50 in the assay on UACC-257 was 1.58 µM (inactive); with CAKI-1, 0.241 µM (active).

On to `COC(=O)C1=C(OC(=O)/C(=C/c2ccc(Cl)cc2)c2ccc(Cl)cc2)C(C(=O)OC)[C@@]2(O)[C@@H](C(=O)OC)[C@H](C)C[C@@H]1[C@@H]2C(=O)OC` (stereo not given in full), for which the GI50 was 35 µM (inactive) in the assay on SF-268; 17.2 µM (inactive) with NCI/ADR-RES; > 73.6 µM (inactive) with HCC 2998; 11.5 µM (inactive) in the assay with A549; > 100 µM (inactive) in the assay on TK-10; 29 µM (inactive) with Malme-3M. For the same molecule, the GI50 in the assay on OVCAR-5 was > 21 µM (inactive); in the assay on COLO 205, > 76.4 µM (inactive); in the assay on OVCAR-4, 50.8 µM (inactive); in the assay with PC-3, 12.6 µM (inactive); in the assay on CCRF-CEM, > 37.2 µM (inactive); in the assay on SR, > 63.2 µM (inactive). The GI50 with A498 was > 100 µM (inactive); in the assay on IGROV-1 it was 27.6 µM (inactive); in the assay with HCT-15, more than 81.3 µM; with RXF 393 it was > 61.4 µM (inactive); with OVCAR-8, 25.1 µM (inactive); in the assay with ACHN it was 25.9 µM (inactive). Moreover, the GI50 with UACC-257 is > 83.6 µM (inactive); with CAKI-1, > 100 µM (inactive).

`CCCCNc1nc2ccccc2c2c1ncn2CC(C)C`: the GI50 with SF-268, in the assay on NCI/ADR-RES, in the assay on HCC 2998, in the assay with A549, with TK-10 and in the assay on Malme-3M was > 100 µM (inactive) each time. Moreover, the GI50 in the assay on OVCAR-5, with COLO 205, in the assay on OVCAR-4, in the assay with PC-3, in the assay with CCRF-CEM and in the assay on SR was > 100 µM (inactive) each time. Also, the GI50 in the assay with A498 was > 100 µM (inactive); with IGROV-1, > 100 µM (inactive); with HCT-15, more than 100 µM; in the assay on RXF 393, > 100 µM (inactive); in the assay on OVCAR-8 it was > 100 µM (inactive); in the assay on ACHN, > 100 µM (inactive). Besides, the GI50 with UACC-257 and in the assay on CAKI-1 was > 100 µM (inactive) throughout.

Turning to `N#Cc1c(N2CCCC2)nsc1Nc1ccccc1`, the GI50 in the assay on SF-268, in the assay on NCI/ADR-RES, in the assay with HCC 2998, in the assay on A549, in the assay with TK-10 and in the assay with Malme-3M was > 100 µM (inactive) each time. For the same molecule, the GI50 in the assay on OVCAR-5, in the assay on COLO 205, in the assay with OVCAR-4, with PC-3, with CCRF-CEM and in the assay on SR was > 100 µM (inactive) throughout. The GI50 in the assay on A498 is > 100 µM (inactive); in the assay on IGROV-1, > 100 µM (inactive); in the assay on HCT-15, more than 100 µM; with RXF 393, > 100 µM (inactive); in the assay with OVCAR-8 it was > 100 µM (inactive); in the assay with ACHN it was > 100 µM (inactive). In addition, the GI50 with UACC-257 is > 100 µM (inactive); in the assay on CAKI-1 it was > 10 µM (inactive).

Take `C=C(C)COC(=O)COCC(=O)OCC(=C)C`: the GI50 with SF-268, with NCI/ADR-RES, in the assay with HCC 2998, in the assay with A549, in the assay with TK-10 and in the assay on Malme-3M was > 100 µM (inactive) throughout. Moreover, the GI50 in the assay with OVCAR-5 is > 100 µM (inactive); in the assay with COLO 205, > 100 µM (inactive); in the assay with OVCAR-4, > 100 µM (inactive); with PC-3, 95.3 µM (inactive); in the assay with CCRF-CEM, > 100 µM (inactive); with SR it was > 100 µM (inactive). In addition, the GI50 was > 100 µM (inactive) in the assay on A498; > 100 µM (inactive) with IGROV-1; more than 100 µM in the assay with HCT-15; > 100 µM (inactive) in the assay on RXF 393; > 100 µM (inactive) in the assay with OVCAR-8; > 100 µM (inactive) with ACHN. The GI50 with UACC-257 and in the assay with CAKI-1 was > 100 µM (inactive) throughout.

Consider `C[C@]1(O)CC(=O)c2c(c(-c3ccc4cc5c(c(O)c4c3O)C(=O)C[C@@](C)(O)C5)c3cccc(O)c3c2O)C1`, for which the GI50 in the assay on SF-268 was 4.31 µM (inactive); with NCI/ADR-RES, 5.15 µM (inactive); in the assay on HCC 2998, 4.58 µM (inactive); in the assay with A549, 4.24 µM (inactive); with TK-10, 6.82 µM (inactive); in the assay on Malme-3M, 6.35 µM (inactive). Further, the GI50 with OVCAR-5 was 9.46 µM (inactive); with COLO 205, 1.79 µM (inactive); in the assay on OVCAR-4, 7 µM (inactive); in the assay with PC-3, 3.08 µM (inactive); in the assay with CCRF-CEM, 6.71 µM (inactive); in the assay on SR it was 5.56 µM (inactive). For the same molecule, the GI50 with A498 was 5.42 µM (inactive); in the assay on IGROV-1, 4.67 µM (inactive); in the assay with HCT-15, 3.76 µM; in the assay with RXF 393 it was 4.58 µM (inactive); in the assay with OVCAR-8 it was 5.02 µM (inactive); in the assay with ACHN, 4.04 µM (inactive). The GI50 in the assay on UACC-257 is 7.36 µM (inactive); in the assay with CAKI-1 it was 5.14 µM (inactive).

Regarding `[N-]=[N+]=Nc1c(Cl)c(Cl)nc2ccccc12`, the GI50 in the assay on SF-268 was > 100 µM (inactive); with NCI/ADR-RES it was > 100 µM (inactive); with HCC 2998, > 100 µM (inactive); in the assay with A549, > 100 µM (inactive); with TK-10 it was 95.9 µM (inactive); with Malme-3M it was > 100 µM (inactive). The GI50 in the assay on OVCAR-5 is > 100 µM (inactive); in the assay with COLO 205, > 100 µM (inactive); with OVCAR-4, 85.7 µM (inactive); in the assay with PC-3, > 100 µM (inactive); in the assay on CCRF-CEM, 54.5 µM (inactive); in the assay on SR it was > 100 µM (inactive). Further, the GI50 in the assay with A498 was 81.5 µM (inactive); with IGROV-1, 77.6 µM (inactive); in the assay with HCT-15, more than 100 µM; in the assay on RXF 393 it was 88.5 µM (inactive); with OVCAR-8, > 100 µM (inactive); with ACHN, 91.4 µM (inactive). The values for the GI50 in the assay on UACC-257 and in the assay on CAKI-1 were > 100 µM (inactive) and 21.2 µM (inactive), respectively.

With `COc1ccc2oc(S(=O)(=O)N3CC(CCl)c4ccc([N+](=O)[O-])cc43)cc2c1` (stereo not given), the GI50 with SF-268 is 0.299 µM (active); in the assay on NCI/ADR-RES, 0.0596 µM (active); in the assay with HCC 2998, 0.256 µM (active); in the assay on A549, 0.274 µM (active); in the assay with TK-10, 15.1 µM (inactive); with Malme-3M, 0.767 µM (active). For the same molecule, the GI50 was 0.832 µM (active) in the assay with OVCAR-5; 0.105 µM (active) with COLO 205; 6.28 µM (inactive) in the assay with OVCAR-4; 0.116 µM (active) in the assay with PC-3; 0.45 µM (active) in the assay on CCRF-CEM; 0.0521 µM (active) in the assay on SR. Moreover, the GI50 in the assay with A498 is 0.0746 µM (active); with IGROV-1 it was 0.0815 µM (active); in the assay on HCT-15, 0.0703 µM; in the assay with RXF 393, 0.0345 µM (active); with OVCAR-8 it was 0.22 µM (active); with ACHN it was 0.179 µM (active). In addition, the figures for the GI50 with UACC-257 and in the assay with CAKI-1 were 0.073 µM (active) and 0.0388 µM (active), respectively.

For `O=C1C=CC(=O)N1c1ccc(I)cc1`, the GI50 was 27 µM (inactive) in the assay on SF-268; 29.9 µM (inactive) in the assay on NCI/ADR-RES; 19.1 µM (inactive) with HCC 2998; 22.9 µM (inactive) in the assay on A549; 16.4 µM (inactive) in the assay with TK-10; 17.9 µM (inactive) with Malme-3M. Further, the GI50 with OVCAR-5 was 23.6 µM (inactive); with COLO 205 it was 6.18 µM (inactive); with OVCAR-4 it was 20.2 µM (inactive); in the assay with PC-3 it was 18.3 µM (inactive); in the assay with CCRF-CEM it was 3.1 µM (inactive); in the assay with SR it was 5.77 µM (inactive). The GI50 in the assay with A498 is 20.2 µM (inactive); in the assay on IGROV-1 it was 24.9 µM (inactive); in the assay with HCT-15, 11.5 µM; in the assay on RXF 393 it was 17.9 µM (inactive); with OVCAR-8 it was 31.6 µM (inactive); in the assay with ACHN it was 17.3 µM (inactive). In addition, the results for the GI50 in the assay with UACC-257 and with CAKI-1 were 18 µM (inactive) and 17.5 µM (inactive), respectively.

As for `CNc1cccnc1/C=N/N=C(/N)S`, the GI50 in the assay on SF-268 is 0.612 µM (active); with NCI/ADR-RES, 3.01 µM (inactive); in the assay on HCC 2998 it was 1.82 µM (inactive); in the assay with A549 it was 2.61 µM (inactive); in the assay on TK-10 it was 8.65 µM (inactive); in the assay with Malme-3M, 1.95 µM (inactive). The GI50 in the assay on OVCAR-5 is 3.89 µM (inactive); with COLO 205, 2.13 µM (inactive); in the assay with OVCAR-4 it was 4.09 µM (inactive); with PC-3 it was 1.69 µM (inactive); with CCRF-CEM, 0.363 µM (active); with SR, > 2.84 µM (inactive). The GI50 in the assay on A498 is 5.35 µM (inactive); in the assay with IGROV-1, > 5.55 µM (inactive); with HCT-15, 2.78 µM; with RXF 393 it was 1.15 µM (inactive); in the assay on OVCAR-8, 0.675 µM (active); with ACHN, 0.332 µM (active). In addition, the values for the GI50 in the assay with UACC-257 and with CAKI-1 were > 10 µM (inactive) and 3.48 µM (inactive), respectively.

These data come from ChEMBL document CHEMBL1201862, “PubChem BioAssay data set” (2004).
